Patent publication US20020128320A1, “Method of administering calcium citrate” (UniServices Ltd., priority 2001, published 2002)
Entries after “also recorded” stand apart in the source; their conditions may differ. Where two headings read alike, the source gives them in different places.

Assays:
[1] = 193 subjects; cited from earlier work
[2] = 6 weeks; 56 subjects; cited from earlier work
[3] = Randomized placebo-controlled trial of calcium citrate: fasting serum lipids; assay type: in vivo, normal postmenopausal women
Description: (§1) A randomized controlled trial of calcium supplementation in 223 normal postmenopausal women aged 55 years or older. Women receiving therapy for osteoporosis were ineligible, as were those with any other major ongoing disease, including serum creatine greater than 0.2 mmol/L, untreated hypo- or hyperthyroidism, liver disease, serum 25-hydroxyvitamin D less than 10 μg/L, malignancy or metabolic bone disease. None of the subjects had been regular users of hormone replacement therapy, anabolic steroids, glucocorticoids or bisphosphonates in the previous 1 year. Lumbar spine bone density (Lunar Expert, Madison, Wis.) was not below the age-appropriate normal range. In the present sub-study there was the further requirement that subjects were not receiving therapy for hyperlipidemia.
266 subjects were assessed for eligibility for the sub-study, and 223 entered the study, of which 111 women were randomized to calcium and 112 to placebo. 20 women in the calcium group discontinued study medication as did 26 in the placebo group. […] The study was approved by the local ethics committee, and each subject gave written, informed consent. There were not significant differences between groups.
Treatments were allocated randomly using a minimization algorithm balancing for current thiazide use, age and the occurrence of fractures resulting from minimal trauma after the age of 40 years. Subjects received 1 gram of elemental calcium daily as the citrate (Citracal, Mission Pharmacal, San Antonio Tex.) or identical placebo. They were asked to take two tablets (each containing 200 mg elemental calcium) before breakfast and three tablets in the evening. Calcium intake and physical activity were assessed using validated questionnaires (Angus et al., 1989; Wilson et al., 1986). Compliance was assessed by tablet counts.
Fasting total cholesterol, high-density lipoprotein cholesterol and triglycerides were measured in serum at baseline, 2 months, 6 months, and one year, using a Roche-Hitachi 747 autoanalyzer (Mannherim, Germany). The cholesterol assay used cholesterol oxidase, high-density lipoprotein measurement was by a direct non-precipitation method using PEG-modified enzymes (cholesterol oxidase), and triglycerides were assayed using a glycerol kinase/oxidase method after initial hydrolysis using lipoprotein lipase. Low-density lipoprotein was calculated using the Friedewald formula:
LDL=TC−HDL−(0.45×triglyceride)
Data were analyzed on an intention-to-treat basis, using a fixed effects mixed models approach to repeated measures using the MIXED procedure of SAS (SAS Institute, Cary, N.C.). Significant main and interaction effects were explained using the method of Tukey. In complimentary analyses, the change from baseline for each continuous normal dependant variable was compared between treatment and placebo arms using Student's t-test for independent groups. A 5% significance level was maintained throughout these analyses.

[4] = Randomized placebo-controlled trial of calcium citrate: body weight; assay type: in vivo, normal postmenopausal women
Description: as §1, with “In the present sub-study there was the further requirement that subjects were not receiving therapy for hyperlipidemia.” left out
266 subjects were assessed for eligibility for the sub-study, and 223 entered the study, of which 111 women were randomized to calcium and 112 to placebo. […]
Treatments were allocated randomly using a minimization algorithm balancing for current thiazide use, age and the occurrence of fractures resulting from minimal trauma after the age of 40 years. […] Calcium intake and physical activity were assessed using validated questionnaires (Angus et al., 1989; Wilson et al., 1986). Compliance was assessed by tablet counts.
Data were analyzed on an intention-to-treat basis, using a fixed effects mixed models approach to repeated measures using the MIXED procedure of SAS (SAS Institute, Cary, N.C.). […]

[5] = 13 men, cited from earlier work
[6] = intention-to-treat analysis, 12 months, 1 g elemental calcium daily

Compound: O=C([O-])[O-].[Ca+2] [calcium carbonate]
- changes in total cholesterol, high-density lipoprotein level, and blood pressure [1]: statistically insignificant changes
- change in total cholesterol [2]: statistically insignificant decrease

Compound: O=C([O-])CC(O)(CC(=O)[O-])C(=O)[O-].O=C([O-])CC(O)(CC(=O)[O-])C(=O)[O-].[Ca+2].[Ca+2].[Ca+2] [calcium citrate]
- high-density lipoprotein/low-density lipoprotein ratio increase (summary statement) ([3]; daily dose about 1 gram elemental calcium): ~20%
- predicted reduction of cardiovascular event rates ([3]; extrapolated from lipid effects by comparison with statin trial data): 20-30%
- high-density lipoprotein/low-density lipoprotein ratio increase [3, 6]: 17.7%
- total cholesterol fall (non-significant) [3, 6]: 3.7%
- high-density lipoprotein increase above baseline ([3]; intention-to-treat analysis, 12 months, 1 g elemental calcium daily, oral): 7.3%
- low-density lipoprotein decline ([3]; intention-to-treat analysis, 12 months, 1 g elemental calcium daily, LDL calculated by Friedewald formula): 7.8%
- ratio of total cholesterol/high-density lipoprotein decline ([3]; intention-to-treat analysis, one year, 1 g elemental calcium daily): 9.3%
- treatment effect on triglycerides ([3]; intention-to-treat analysis, versus placebo (P=0.48)): no significant treatment effect
- change in high-density lipoprotein cholesterol versus placebo ([3]; protocol analysis excluding statin/fibrate users, FIG. 1A, P=0.05): increase in high-density lipoprotein; also recorded: significant treatment effects
- change in low-density lipoprotein cholesterol versus placebo ([3]; protocol analysis excluding statin/fibrate users, FIG. 1B, P=0.04): declined; also recorded: significant treatment effects
- change in total cholesterol ([3]; protocol analysis excluding statin/fibrate users, FIG. 2A): did not change significantly
- treatment effect on triglycerides ([3]; protocol analysis excluding statin/fibrate users, FIG. 3): no significant treatment effect
- total cholesterol/high-density lipoprotein ratio decrease ([3]; protocol analysis excluding subjects who commenced a statin or fibrate): 9.6%
- high-density lipoprotein/low-density lipoprotein ratio increase ([3]; protocol analysis excluding subjects who commenced a statin or fibrate, FIG. 2B): 17%
- body weight decrease (mean ±SE) ([4]; intention-to-treat analysis, 1 g elemental calcium daily): 289 ± 193 g
- between-groups effect on body weight ([4]; versus placebo (P=0.54)): no between-groups effect on body weight

Compound: calcium citrate malate
- increase in saturated fat excretion ([5]; food and tablets): 7%
- low-density lipoprotein levels decrease ([5]; food and tablets): 11%
- reduction in plasma cholesterol ([5]; food and tablets): 6%
- high-density lipoprotein levels change ([5]; increased in some subjects and decreased in others): insignificant
